PubChem BioAssay (NCI)
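A five-concentration, 48-hour dose response in 96-well plates underlies each endpoint, interpolated linearly between surrounding concentrations. TGI is the concentration that stops growth completely.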

Key:
Experiment in all cases: DTP human tumour cell line panel, 48 h
SF-268 CNS = tested on: SF-268 CNS
SR leukemia = tested on: SR leukemia
HL-60(TB) leukemia = tested on: HL-60(TB) leukemia
KM12 colon = tested on: KM12 colon
UACC-62 melanoma = tested on: UACC-62 melanoma
MALME-3M melanoma = tested on: MALME-3M melanoma
NCI-H522 lung = tested on: NCI-H522 lung
M14 melanoma = tested on: M14 melanoma
U251 CNS = tested on: U251 CNS
SK-MEL-5 melanoma = tested on: SK-MEL-5 melanoma
A549 NSCLC = tested on: A549 NSCLC
CAKI-1 renal = tested on: CAKI-1 renal
PC-3 prostate = tested on: PC-3 prostate
NCI-H23 lung = tested on: NCI-H23 lung
HOP-92 NSCLC = tested on: HOP-92 NSCLC
MDA-N = tested on: MDA-N
OVCAR-8 ovarian = tested on: OVCAR-8 ovarian
ACHN renal = tested on: ACHN renal
HS 578T breast = tested on: HS 578T breast
SW-620 colon = tested on: SW-620 colon
OVCAR-5 ovarian = tested on: OVCAR-5 ovarian
SK-MEL-2 melanoma = tested on: SK-MEL-2 melanoma
SK-OV-3 ovarian = tested on: SK-OV-3 ovarian
UO-31 renal = tested on: UO-31 renal
OVCAR-4 ovarian = tested on: OVCAR-4 ovarian
MDA-MB-435 = tested on: MDA-MB-435
MDA-MB-231 breast = tested on: MDA-MB-231 breast
K-562 leukemia = tested on: K-562 leukemia
HCT-15 colon = tested on: HCT-15 colon
HOP-62 NSCLC = tested on: HOP-62 NSCLC
MOLT-4 leukemia = tested on: MOLT-4 leukemia
SF-295 CNS = tested on: SF-295 CNS
RXF 393 renal = tested on: RXF 393 renal
DU-145 prostate = tested on: DU-145 prostate
COLO 205 colon = tested on: COLO 205 colon
SN12C renal = tested on: SN12C renal
786-0 renal = tested on: 786-0 renal
SNB-75 CNS = tested on: SNB-75 CNS
NCI/ADR-RES ovarian = tested on: NCI/ADR-RES ovarian
NCI-H226 lung = tested on: NCI-H226 lung
HCC-2998 colon = tested on: HCC-2998 colon
LOX IMVI melanoma = tested on: LOX IMVI melanoma
OVCAR-3 ovarian = tested on: OVCAR-3 ovarian
TK-10 renal = tested on: TK-10 renal
UACC-257 melanoma = tested on: UACC-257 melanoma
SNB-19 CNS = tested on: SNB-19 CNS
HCT-116 colon = tested on: HCT-116 colon
RPMI-8226 leukemia = tested on: RPMI-8226 leukemia
T-47D breast = tested on: T-47D breast
MCF7 breast = tested on: MCF7 breast
EKVX NSCLC = tested on: EKVX NSCLC
NCI-H460 lung = tested on: NCI-H460 lung
HT29 colon = tested on: HT29 colon
IGROV1 ovarian = tested on: IGROV1 ovarian
BT-549 breast = tested on: BT-549 breast
SK-MEL-28 melanoma = tested on: SK-MEL-28 melanoma
A498 renal = tested on: A498 renal
CCRF-CEM leukemia = tested on: CCRF-CEM leukemia
SF-539 CNS = tested on: SF-539 CNS
DLD-1 colon = tested on: DLD-1 colon
DMS 273 small cell lung = tested on: DMS 273 small cell lung
KM20L2 colon = tested on: KM20L2 colon
M19-MEL melanoma = tested on: M19-MEL melanoma
LXFL 529 NSCLC = tested on: LXFL 529 NSCLC

## CCCCCCCC(=O)OC[n+]1ccc(-c2c(COC(=O)NC(C)C)c(COC(=O)NC(C)C)c3n2CCC3)cc1
SF-268 CNS
  TGI: > 73.8 µM
SR leukemia
  TGI: > 56 µM
HL-60(TB) leukemia
  TGI: 52.4 µM
KM12 colon
  TGI: > 100 µM
UACC-62 melanoma
  TGI: 33.5 µM
MALME-3M melanoma
  TGI: > 90.6 µM
NCI-H522 lung
  TGI: > 59.6 µM
M14 melanoma
  TGI: > 100 µM
U251 CNS
  TGI: > 100 µM
SK-MEL-5 melanoma
  TGI: > 100 µM
A549 NSCLC
  TGI: > 100 µM
CAKI-1 renal
  TGI: 62.7 µM
PC-3 prostate
  TGI: > 100 µM
NCI-H23 lung
  TGI: > 100 µM
HOP-92 NSCLC
  TGI: 83.8 µM
MDA-N
  TGI: > 100 µM
OVCAR-8 ovarian
  TGI: > 100 µM
ACHN renal
  TGI: 68.9 µM
HS 578T breast
  TGI: > 100 µM
SW-620 colon
  TGI: 60.8 µM
OVCAR-5 ovarian
  TGI: > 100 µM
SK-MEL-2 melanoma
  TGI: 47.1 µM
SK-OV-3 ovarian
  TGI: > 100 µM
UO-31 renal
  TGI: > 100 µM
OVCAR-4 ovarian
  TGI: > 100 µM
MDA-MB-435
  TGI: > 100 µM
MDA-MB-231 breast
  TGI: > 100 µM
K-562 leukemia
  TGI: > 100 µM
HCT-15 colon
  TGI: > 100 µM
HOP-62 NSCLC
  TGI: > 100 µM
MOLT-4 leukemia
  TGI: > 59 µM
SF-295 CNS
  TGI: > 100 µM
RXF 393 renal
  TGI: 49.9 µM
DU-145 prostate
  TGI: > 59.8 µM
COLO 205 colon
  TGI: > 100 µM
SN12C renal
  TGI: > 100 µM
786-0 renal
  TGI: > 79.8 µM
SNB-75 CNS
  TGI: > 100 µM
NCI/ADR-RES ovarian
  TGI: > 100 µM
NCI-H226 lung
  TGI: > 100 µM
HCC-2998 colon
  TGI: > 100 µM
LOX IMVI melanoma
  TGI: 54 µM
OVCAR-3 ovarian
  TGI: > 100 µM
TK-10 renal
  TGI: > 100 µM
UACC-257 melanoma
  TGI: > 100 µM
SNB-19 CNS
  TGI: > 100 µM
HCT-116 colon
  TGI: > 71.4 µM
RPMI-8226 leukemia
  TGI: 66.2 µM
T-47D breast
  TGI: > 100 µM
MCF7 breast
  TGI: > 100 µM
EKVX NSCLC
  TGI: > 100 µM
NCI-H460 lung
  TGI: > 100 µM
HT29 colon
  TGI: > 100 µM
IGROV1 ovarian
  TGI: > 68.3 µM
BT-549 breast
  TGI: > 94.1 µM
SK-MEL-28 melanoma
  TGI: > 100 µM
A498 renal
  TGI: 85.1 µM
CCRF-CEM leukemia
  TGI: > 60.3 µM
SF-539 CNS
  TGI: > 66.3 µM

## N#CC(c1ccc(Cl)cc1)c1c(O)nc2ccc(=N)cc-2n1O (stereo unspecified)
SF-268 CNS
  TGI: > 100 µM
SR leukemia
  TGI: > 100 µM
HL-60(TB) leukemia
  TGI: > 100 µM
KM12 colon
  TGI: > 100 µM
UACC-62 melanoma
  TGI: > 100 µM
NCI-H522 lung
  TGI: > 100 µM
M14 melanoma
  TGI: > 100 µM
DLD-1 colon
  TGI: > 100 µM
SK-MEL-5 melanoma
  TGI: > 100 µM
A549 NSCLC
  TGI: > 100 µM
CAKI-1 renal
  TGI: > 100 µM
HOP-92 NSCLC
  TGI: > 100 µM
ACHN renal
  TGI: > 100 µM
SW-620 colon
  TGI: > 100 µM
SK-OV-3 ovarian
  TGI: > 100 µM
DMS 273 small cell lung
  TGI: > 100 µM
K-562 leukemia
  TGI: > 100 µM
MOLT-4 leukemia
  TGI: > 100 µM
SF-295 CNS
  TGI: > 100 µM
786-0 renal
  TGI: > 100 µM
SNB-75 CNS
  TGI: > 100 µM
NCI-H226 lung
  TGI: > 100 µM
LOX IMVI melanoma
  TGI: > 100 µM
OVCAR-3 ovarian
  TGI: > 100 µM
KM20L2 colon
  TGI: > 100 µM
TK-10 renal
  TGI: > 100 µM
UACC-257 melanoma
  TGI: > 100 µM
HCT-116 colon
  TGI: > 100 µM
RPMI-8226 leukemia
  TGI: > 100 µM
M19-MEL melanoma
  TGI: > 100 µM
EKVX NSCLC
  TGI: > 100 µM
HT29 colon
  TGI: > 100 µM
IGROV1 ovarian
  TGI: > 100 µM
SK-MEL-28 melanoma
  TGI: > 100 µM
CCRF-CEM leukemia
  TGI: > 100 µM
LXFL 529 NSCLC
  TGI: > 100 µM
SF-539 CNS
  TGI: > 100 µM
